Reference: patent US10179767B2 (GENENTECH, INC., priority 2015, dated 2019)

Molecular target: T1, hNav1.7 (Homo sapiens, UniProt Q15858)
T1 construct: expressed in transfected cells
Experiment: Tritiated sulfonamide binding to membranes from cells expressing hNav1.7 and the β1 subunit (Nav 1.7 ligand binding assay, competitive)
Details: competition with 100 pM [3H]compound, room temperature, 18 h
Description: Tritiated Sulfonamide Binding to Membranes Isolated from Cells that Heterologously Express hNav1.7 and the β1 Subunit
Preparation of membranes containing recombinantly expressed sodium channels: Frozen recombinant cell pellets were thawed on ice and diluted to 4 times the cell pellet weight with ice cold 50 mM Tris HCl, pH 7.4 buffer. The cell suspensions were homogenized on ice using a motorized glass dounce homogeniser. Homogenates were further diluted 8.4 times with ice cold 50 mM Tris HCl, pH 7.4 buffer and then centrifuged at 200×g at 4° C. for 15 min. The supernatants were collected and centrifuged at 10000×g at 4° C. for 50 min. The pellets were then re-suspended in 100 mM NaCl, 20 mM Tris HCl, pH 7.4 buffer containing 1% v/v protease inhibitors (Calbiochem) and re-homogenized on ice. The homogenized membranes were then processed through a syringe equipped with a 26 gauge needle. Protein concentrations were determined by Bradford Assay and the membranes were stored at −80° C.
Radioligand Binding Studies:
Saturation experiments. A competitive NaV1.7 inhibitor having a methyl group was tritiated. Three tritiums were incorporated in place of methyl hydrogens to generate [^3H]compound. Binding of this radioligand was preformed in 5 mL borosilicate glass test tubes at room temperature. Binding was initiated by adding membranes to increasing concentrations of [^3H]compound in 100 mM NaCl, 20 mM Tris HCl, pH 7.4 buffer containing 0.01% w/v bovine serum albumin (BSA) for 18 h. Non-specific binding was determined in the presence of 1 μM unlabelled compound. After 18 h, the reactants were filtered through GF/C glass fiber filters presoaked in 0.5% w/v polyethylene imine Filters were washed with 15 mL ice cold 100 mM NaCl, 20 mM Tris HCl, pH7.4 buffer containing 0.25% BSA to separate bound from free ligand. [^3H]compound bound to filters was quantified by liquid scintillation counting.
Competitive Binding Experiments:
Binding reactions were preformed in 96-well polypropylene plates at room temperature for 18 h. In 360 μL, membranes were incubated with 100 pM [^3H]compound and increasing concentrations of Test Compound. Non-specific binding was defined in the presence of 1 μM unlabelled compound. Reactions were transferred and filtered through 96-well glass fiber/C filter plates presoaked with 0.5% polyethylene imine. The filtered reactions were washed 5 times with 200 μL ice cold buffer containing 0.25% BSA. Bound radioactivity was determined by liquid scintillation counting. Data Analysis: For saturation experiments, non-specific binding was subtracted from total binding to provide specific binding and these values were recalculated in terms of pmol ligand bound per mg protein. Saturation curves were constructed and dissociation constants were calculated using the single site ligand binding model: Beq=(Bmax*X)/(X+Kd), where Beq is the amount of ligand bound at equilibrium, Bmax is the maximum receptor density, Kd is the dissociation constant for the ligand, and X is the free ligand concentration. For competition studies percent inhibition was determined and IC50 values were calculated using a 4 parameter logistic model (% inhibition=(A+((B−A)/(1+((x/C)⨣D)))) using XLfit, where A and B are the maximal and minimum inhibition respectively, C is the IC50 concentration and D is the (Hill) slope.

T1 sequence (Q15858 whole entry): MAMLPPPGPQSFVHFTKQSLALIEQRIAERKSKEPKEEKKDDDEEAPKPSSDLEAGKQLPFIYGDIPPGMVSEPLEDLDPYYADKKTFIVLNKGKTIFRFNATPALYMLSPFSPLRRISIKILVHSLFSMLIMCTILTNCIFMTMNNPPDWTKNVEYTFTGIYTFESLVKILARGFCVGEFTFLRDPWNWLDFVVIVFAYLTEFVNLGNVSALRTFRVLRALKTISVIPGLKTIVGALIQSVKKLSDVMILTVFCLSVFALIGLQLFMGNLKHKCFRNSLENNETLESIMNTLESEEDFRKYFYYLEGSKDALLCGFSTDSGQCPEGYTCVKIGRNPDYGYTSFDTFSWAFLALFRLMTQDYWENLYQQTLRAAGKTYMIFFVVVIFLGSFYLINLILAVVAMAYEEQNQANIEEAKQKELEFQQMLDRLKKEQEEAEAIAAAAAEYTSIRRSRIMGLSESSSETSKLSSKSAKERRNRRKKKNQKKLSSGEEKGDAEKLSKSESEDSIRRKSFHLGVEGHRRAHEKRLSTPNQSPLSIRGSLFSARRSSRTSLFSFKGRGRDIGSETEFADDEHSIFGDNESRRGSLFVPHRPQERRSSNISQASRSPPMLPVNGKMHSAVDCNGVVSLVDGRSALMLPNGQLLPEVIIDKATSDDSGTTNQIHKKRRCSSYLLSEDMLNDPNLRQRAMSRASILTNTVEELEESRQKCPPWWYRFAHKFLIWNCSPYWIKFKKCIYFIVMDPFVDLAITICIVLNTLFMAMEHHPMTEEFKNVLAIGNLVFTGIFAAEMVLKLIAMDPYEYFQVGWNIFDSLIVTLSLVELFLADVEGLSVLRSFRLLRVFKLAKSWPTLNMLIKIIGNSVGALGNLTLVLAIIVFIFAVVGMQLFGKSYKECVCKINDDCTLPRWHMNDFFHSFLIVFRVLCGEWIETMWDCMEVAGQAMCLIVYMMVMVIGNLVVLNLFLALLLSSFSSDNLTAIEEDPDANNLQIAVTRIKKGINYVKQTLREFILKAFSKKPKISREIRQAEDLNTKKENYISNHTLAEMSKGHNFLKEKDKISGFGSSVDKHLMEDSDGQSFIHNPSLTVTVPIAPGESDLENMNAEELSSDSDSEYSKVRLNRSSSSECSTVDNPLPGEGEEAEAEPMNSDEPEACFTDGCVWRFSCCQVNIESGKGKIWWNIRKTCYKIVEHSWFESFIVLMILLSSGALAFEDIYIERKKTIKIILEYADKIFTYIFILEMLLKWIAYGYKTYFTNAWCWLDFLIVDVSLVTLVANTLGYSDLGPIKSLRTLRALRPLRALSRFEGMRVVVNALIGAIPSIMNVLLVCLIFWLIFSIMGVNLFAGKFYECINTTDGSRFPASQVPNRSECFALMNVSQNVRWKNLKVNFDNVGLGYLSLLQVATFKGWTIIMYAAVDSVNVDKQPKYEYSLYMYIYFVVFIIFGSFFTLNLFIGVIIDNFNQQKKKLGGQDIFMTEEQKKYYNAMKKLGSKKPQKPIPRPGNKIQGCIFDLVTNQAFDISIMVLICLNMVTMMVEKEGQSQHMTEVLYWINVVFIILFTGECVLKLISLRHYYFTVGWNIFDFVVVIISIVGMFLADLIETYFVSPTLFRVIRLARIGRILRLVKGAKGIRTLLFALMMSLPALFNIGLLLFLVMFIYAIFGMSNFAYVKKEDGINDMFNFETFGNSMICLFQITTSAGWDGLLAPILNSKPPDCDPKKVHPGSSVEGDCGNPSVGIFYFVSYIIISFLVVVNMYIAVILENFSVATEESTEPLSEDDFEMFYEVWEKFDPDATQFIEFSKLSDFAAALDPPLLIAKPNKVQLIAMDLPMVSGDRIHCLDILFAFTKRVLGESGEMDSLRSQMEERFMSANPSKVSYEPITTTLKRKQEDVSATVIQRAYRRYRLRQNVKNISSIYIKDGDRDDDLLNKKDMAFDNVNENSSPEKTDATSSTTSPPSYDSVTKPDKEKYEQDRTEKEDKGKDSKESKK
T1 sequence (Q07699 19-218 partner): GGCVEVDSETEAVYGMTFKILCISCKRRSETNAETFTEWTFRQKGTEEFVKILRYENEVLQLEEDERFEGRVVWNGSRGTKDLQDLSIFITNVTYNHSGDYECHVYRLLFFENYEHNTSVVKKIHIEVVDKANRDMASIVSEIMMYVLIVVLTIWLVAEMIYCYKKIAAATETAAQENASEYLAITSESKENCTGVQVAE

Compound | IC50
CS(=O)(=O)NC(=O)c1ccc(OCC2CCN(Cc3cc(C(F)(F)F)ccc3Cl)CC2)c(C2CC2)c1 [Example 60, 4-((1-(2-chloro-5-(trifluoromethyl)benzyl)piperidin-4-yl)methoxy)-3-cyclopropyl-N-(methylsulfonyl)benzamide] | 8.1 nM
CC(c1cc(Cl)cc(Cl)c1)N1CCC(COc2ccc(C(=O)NS(C)(=O)=O)cc2C2CC2)CC1 (stereo not shown) [Example 61, 3-cyclopropyl-4-((1-(1-(3,5-dichlorophenyl)ethyl)piperidin-4-yl)methoxy)-N-(methylsulfonyl)-benzamide] | 10 nM
CS(=O)(=O)NC(=O)c1ccc(OCC2CCN(Cc3cc(C(F)(F)F)cc(Cl)c3F)CC2)c(C2CC2)c1 [Example 62, 4-((1-(3-chloro-2-fluoro-5-(trifluoromethyl)benzyl)piperidin-4-yl)methoxy)-3-cyclopropyl-N-(methylsulfonyl)benzamide] | 9.8 nM
CS(=O)(=O)NC(=O)c1cc(C2CC2)c(OCC2(F)CCN(Cc3cc(C(F)(F)F)ccc3Cl)CC2)cc1F [Example 63, 4-((1-(2-chloro-5-(trifluoromethyl)benzyl)-4-fluoropiperidin-4-yl)methoxy)-5-cyclopropyl-2-fluoro-N-(methylsulfonyl)benzamide] | 7 nM
